Values joined by “and” are separate entries in the source; they are usually repeats but may differ in a detail not shown here. Equal entries are not always repeated. Results filed as inconclusive are left out. Active and inactive are the calls of the source. No rule for the calls is given here.
Test system: Toxoplasma gondii growth in host cells, no IFN-gamma
Experiment: compound activity on host-cell Toxoplasma growth – dose response (AID 1259420);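 also: host cells were HeLa; final incubation lasted 72 hours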

Question: With `CC(C)C#Cc1ccc([C@H]2[C@@H](C#N)N(C(=O)c3cccc(F)c3)[C@@H]2CO)cc1` as the compound, how does the AC50 read?
Answer: Its AC50 is 14.1 µM.

Question: How did the AC50 turn out when `COc1cc([C@@H]2c3cc4c(cc3C(OC3OC5COC(C)OC5C(O)C3O)C3OCC(=O)[C@@H]32)OCO4)cc(OC)c1O` (stereo partly drawn) was run?
Answer: The AC50 was 13.7 µM.

Question: With `COc1ccc(-c2ccc([C@@H]3[C@@H](CO)N4C(=O)CN(Cc5ccccc5)C[C@H]34)cc2)cc1` as the compound, how does the AC50 read?
Answer: Its AC50 is > 39 µM (inactive).

Question: How did the AC50 turn out when `Oc1[nH]c2ccccc2c1N=Nc1nc(Nc2ccccc2)nc(N2CCOCC2)n1` was run?
Answer: Its AC50 is 16.9 µM.

Question: How did the AC50 turn out when `CCCCOc1ccc2c(=O)c(-c3cc(C(=O)OC)oc3C)c(C(F)(F)F)oc2c1C` was run?
Answer: Its AC50 is 8.86 µM and 8.94 µM.

Question: For `O=C(Cc1ccccc1)N1CC(=O)N2[C@H](C1)[C@@H](c1ccc(-c3ccc(F)cc3)cc1)[C@@H]2CO`, which AC50 is on record?
Answer: The AC50 was 24.7 µM.

Question: Which AC50 does the source give for `COc1cccc(S(=O)(=O)N2CCCCN3[C@H](CO)[C@H](c4ccc(C#CC5CC5)cc4)[C@H]3C2)c1` here?
Answer: The AC50 was 16.8 µM and 17 µM.

Question: Which AC50 does the source give for `O=C(C1CCC1)N1CC[C@H]2CN(Cc3cccc(Cl)c3)S(=O)(=O)[C@@H]2CC1` here?
Answer: Its AC50 is > 39 µM (inactive).

Question: `Cc1ccc(CNC2=NCCNC23CCN(S(=O)(=O)c2ccc4c(c2)CCCC4)CC3)cc1` was tested. Which AC50 did it give?
Answer: Its AC50 is 23 µM.

Question: How did the AC50 turn out when `O=S(=O)(c1ccc(-c2ccccc2)cc1)N1C[C@@H]2N[C@H](C1)C2c1ccc(-c2ccncc2)cc1` (stereo partly drawn) was run?
Answer: The AC50 was 16.1 µM.

Question: How did the AC50 turn out when `O=C(Nc1cccc(F)c1)N1CCCCN2[C@H](CO)[C@@H](c3ccc(C#Cc4cccnc4)cc3)[C@H]2C1` was run?
Answer: Its AC50 is 23.6 µM.

Question: With `N#Cc1ccc(-c2ccc([C@@H]3[C@@H]4CN(S(=O)(=O)Cc5ccccc5)C[C@H]3N4)cc2)cc1` as the compound, how does the AC50 read?
Answer: Its AC50 is 9.96 µM.

Question: For `O=C(C1CCC1)N1C[C@@H]2N[C@H](C1)C2c1ccc(/C=C/c2ccccc2)cc1` (stereo partly drawn), which AC50 is on record?
Answer: The AC50 was 12.7 µM and 11.5 µM.

Question: For `CCn1c(C2CCCN(C(=O)CCN3CCCCCC3=O)C2)nn(C)c1=O` (stereo not drawn), which AC50 is on record?
Answer: Its AC50 is 29.4 µM.

Question: `N#C[C@@H]1[C@@H](c2ccc(-c3cccc(F)c3)cc2)[C@H](CO)N1C(=O)NC1CCCC1` was tested. Which AC50 did it give?
Answer: The AC50 was > 20 µM (inactive).

Question: With `OC[C@H]1[C@@H](c2ccc(C#Cc3ccccc3F)cc2)[C@@H]2CN(CC3CCOCC3)CCCCN12` as the compound, how does the AC50 read?
Answer: The AC50 was 14.8 µM.

Question: With `COc1cccc(S(=O)(=O)N2CCCCN3[C@H](CO)[C@@H](c4ccc(C#CCC(C)C)cc4)[C@@H]3C2)c1` as the compound, how does the AC50 read?
Answer: The AC50 was 19 µM.

Question: With `O=C(Nc1ccc(F)cc1)N1CC(=O)N2[C@H](C1)[C@@H](c1ccc(-c3cccc(F)c3)cc1)[C@@H]2CO` as the compound, how does the AC50 read?
Answer: Its AC50 is 29.4 µM and 15.6 µM.

Question: With `CCCC(C)c1c(-c2ccccc2)ncn1Cc1cnc(C)cn1` (stereo not drawn) as the compound, how does the AC50 read?
Answer: The AC50 was 36.1 µM.

Question: How did the AC50 turn out when `CCc1ccccc1S(=O)(=O)N1CCc2nc(-c3ccccc3)sc2C1` was run?
Answer: Its AC50 is 3.94 µM and 3.08 µM.

Question: With `COc1ccc(NC(=O)N2CCCCN3[C@H](C2)[C@@H](c2ccc(-c4ccccc4F)cc2)[C@@H]3CO)cc1` as the compound, how does the AC50 read?
Answer: Its AC50 is 35.8 µM.

Question: How did the AC50 turn out when `CN(C)C(=O)c1ccc(-c2ccc([C@H]3[C@@H](CO)N4C(=O)CN(C(=O)CC5CC5)C[C@@H]34)cc2)cc1` was run?
Answer: The AC50 was > 39 µM (inactive).

Question: How did the AC50 turn out when `COc1ccc(-c2nc(Nc3ccc(CN4CCC(C)CC4)cc3)c3ccccc3n2)cc1` was run?
Answer: Its AC50 is 12.6 µM.

Question: Which AC50 does the source give for `O=C(C[C@H]1CC[C@H]2[C@@H](COC[C@@H](O)CN2S(=O)(=O)c2ccccc2F)O1)N1CCC(Cc2ccccc2)CC1` here?
Answer: The AC50 was > 20 µM (inactive).

Question: Which AC50 does the source give for `C[C@@H]1CN([C@@H](C)CO)C(=O)c2cccc(NC(=O)NC3CCCCC3)c2O[C@H]1CN(C)Cc1ccc(C(F)(F)F)cc1` here?
Answer: Its AC50 is > 39 µM (inactive).

Question: For `COCCN1CCN(S(=O)(=O)c2ccccc2)Cc2cccnc21`, which AC50 is on record?
Answer: The AC50 was 31.1 µM.

Question: With `COc1cccc(NC(=O)N2CC(=O)N3[C@H](CO)[C@@H](c4ccc(C#CCC5CCCC5)cc4)[C@@H]3C2)c1` as the compound, how does the AC50 read?
Answer: Its AC50 is 14.4 µM and 13.4 µM.

Question: `COc1cc([C@@H]2c3cc4c(cc3C(OC3O[C@@H]5COC(C)O[C@H]5[C@H](O)[C@H]3O)C3COC(=O)[C@@H]32)OCO4)cc(OC)c1O` (stereo partly drawn) was tested. Which AC50 did it give?
Answer: The AC50 was 23.5 µM.

Question: `N#Cc1cccc(-c2ccc3c(c2)[C@@H]2[C@@H](CCN2S(=O)(=O)c2ccc(F)cc2)[C@@H](CO)N3)c1` was tested. Which AC50 did it give?
Answer: Its AC50 is 14.5 µM.

Question: How did the AC50 turn out when `COc1cc2nc(N3CCN(C(=O)c4ccco4)CC3)nc(N)c2cc1OC` was run?
Answer: Its AC50 is 19 µM.

Question: With `CN(C[C@H]1[C@H](c2ccccc2)[C@@H](CO)N1CC1CC1)C(=O)c1ccc(F)cc1` as the compound, how does the AC50 read?
Answer: The AC50 was > 39 µM (inactive).

Question: For `O=C(C[C@@H]1CC[C@H]2[C@@H](COC[C@@H](O)CN2Cc2cc(F)ccc2F)O1)NCc1ccc(Oc2ccccc2)cc1`, which AC50 is on record?
Answer: The AC50 was 16.9 µM.

Question: `O=C(CC1CC1)N1CC[C@@H]2[C@H]1c1cc(-c3ccc(F)cc3)ccc1N[C@@H]2CO` was tested. Which AC50 did it give?
Answer: Its AC50 is 16.3 µM.

Question: How did the AC50 turn out when `O=C(Nc1cccnc1)c1cc(-c2cnc(-c3ccccc3)nc2)cn1CC1CC1` was run?
Answer: The AC50 was 27.9 µM and 19.8 µM.

Question: How did the AC50 turn out when `O=S(=O)(c1ccccc1)N(CC(F)(F)F)c1ccc(C(O)(C(F)(F)F)C(F)(F)F)cc1` was run?
Answer: The AC50 was 14.2 µM.

Question: How did the AC50 turn out when `O=c1[nH]c(=O)n([C@H]2C[C@H](O)[C@@H](CO)O2)cc1F` was run?
Answer: Its AC50 is 0.346 µM.

Question: How did the AC50 turn out when `COc1cccc(-c2ccc(C3[C@H]4CNC[C@@H]3N4Cc3nccs3)cc2)c1` (stereo partly drawn) was run?
Answer: Its AC50 is 18.7 µM.

Question: How did the AC50 turn out when `N#Cc1cccc(-c2ccc3c(c2)[C@@H]2[C@@H](CCN2S(=O)(=O)c2ccc(F)cc2)[C@H](CO)N3)c1` was run?
Answer: Its AC50 is 10.1 µM.

Question: Which AC50 does the source give for `N#C[C@H]1[C@H](c2ccc(C#Cc3ccccc3F)cc2)[C@@H](CO)N1C(=O)c1cccnc1` here?
Answer: The AC50 was > 39 µM (inactive).

Question: `Cc1nc2ccccn2c1CN(C)Cc1cnn(-c2ccccc2)c1` was tested. Which AC50 did it give?
Answer: Its AC50 is 12.2 µM.

Question: Which AC50 does the source give for `Cc1ccc(Nc2nc(N)nc(CN3CCc4ccccc4C3)n2)cc1` here?
Answer: Its AC50 is > 10 µM (inactive).

Question: Which AC50 does the source give for `CCOc1ccc(N(Cc2nc(-c3ccc(OC)cc3)oc2C)S(=O)(=O)c2ccccc2)cc1` here?
Answer: The AC50 was 7.28 µM.

Question: How did the AC50 turn out when `C=CCN1C(=O)COC2(CCN(Cc3ccc(C)s3)CC2)C1C` (stereo not drawn) was run?
Answer: Its AC50 is > 39 µM (inactive).

— PubChem BioAssay AID1259420 (Broad Institute, 2018)
